We go through ten molecules from patent US9629855B2, “Pharmaceutical composition for treatment of eye pain, containing PGE2 synthesis inhibitor” (INDUSTRY-ACADEMIC COOPERATION FOUNDATION, YONSEI UNIVERSITY, priority 2011, dated 2017).

Structures are written as SMILES.

One assay has as its system patients having an ocular pain symptom. The experiment in a line: Number of eye blinks after intraocular administration of PGE2 synthesis inhibitors to eye pain patients. It is filed as in vivo, human. The note with it: blinks for 5 min. On the procedure:
PGE2 synthesis inhibitors were administered intraocularly to patients having an ocular pain symptom, and whether the number of eye blinks of the patient group was reduced compared to that of a control group was examined. The PGE2 synthesis inhibitors used were 15-deoxy-Δ^12,14-PGJ2, exisulind, NS-398, leukotriene C4, mk-886, analogues of MK-886, MF63, thienopyrrole, naphthalene disulphonamide, resveratrol, and γ-hydroxybutenolide.
As a result, it was shown that, when the PGE synthesis inhibitors were administered intraocularly, they reduced ocular discomfort to thereby reduce the number of eye blinks (Table 2).
In the case of `CCCCC/C=C/C=C1/C(=O)C=C[C@@H]1C/C=C\CCCC(=O)O` [15-deoxy-Δ^12,14-PGJ2], the “Number of eye blinks of treated group (n = 10) for 5 min” value (shortened to “Number of eye blinks … for 5 min”) came out at 11.

For `CC1=C(CC(=O)O)c2cc(F)ccc2/C1=C\c1ccc(S(C)(=O)=O)cc1` [Exisulind], the “Number of eye blinks … for 5 min” value was 14. With `CCCCC/C=C\C\C=C/C=C/C=C/[C@@H](SC[C@H](NC(=O)CC[C@H](N)C(=O)O)C(=O)NCC(=O)O)[C@@H](O)CCCC(=O)O` [Leukotriene C4], the “Number of eye blinks … for 5 min” value amounted to 17. On to `CS(=O)(=O)Nc1ccc([N+](=O)[O-])cc1OC1CCCCC1` [NS-398], for which the “Number of eye blinks … for 5 min” value turned out to be 13. Turning to `Oc1ccc(C=Cc2cc(O)cc(O)c2)cc1` [Resveratrol], the “Number of eye blinks … for 5 min” value is 17. Take `c1cc2sccc2[nH]1` [Thienopyrrole]: the “Number of eye blinks … for 5 min” value turned out to be 13. Consider `CC(C)c1ccc2c(c1)c(SC(C)(C)C)c(CC(C)(C)C(=O)O)n2Cc1ccc(Cl)cc1` [mk-886], for which the “Number of eye blinks … for 5 min” value amounted to 15.

For another assay the test system is unchanged. In words: Number of eye blinks after intraocular administration of selective COX2 inhibitors to ocular pain patients. The assay is classed as in vivo, human. The settings on record: control group = Diclofenac.
For the molecule `Cc1cnc(NC(=O)C2=C(O)c3ccccc3S(=O)(=O)N2C)s1` [Meloxicam], the “Number of eye blinks of treated group (n = 3)” value (from here on “Number of eye blinks … (n = 3)”) is on record as 20. `CS(=O)(=O)Nc1ccc([N+](=O)[O-])cc1Oc1ccccc1` [Nimesulud]: the “Number of eye blinks … (n = 3)” value came out at 16.

Regarding `CCN1CC/C(=C\c2cc(C(C)(C)C)c(O)c(C(C)(C)C)c2)S1(=O)=O` [S-2474, 3,5-di-tert-buryl-4-hydroxybenzylidene], the “Number of eye blinks … (n = 3)” value worked out at 15.
